Laboratory results from patent US8188085B2, “Antifungal agents” (Merck Sharp & Dohme Corp., priority 2008, dated 2012).

These compounds were tested against glucan synthase (GS) prepared from Candida albicans MY1055 (Candida albicans, UniProt O13428) (assay: Glucan synthase inhibition (polymerization assay, 96-well)). Details: GS from C. albicans MY1055; 60 min incubation at 22° C.
Format: biochemical
Experimental: The in vitro evaluation of glucan synthase inhibitory activity of compounds was measured in a polymerization assay in 96-well format. Each well contained 100 μL of ^3H-UDPG at 0.5 mM (6000 to 8000 dpm/nmol), 50 mM HEPES pH 7.5 (Sigma), 10% w/v glycerol (Sigma), 1.5 mg/mL bovine serum albumin (Sigma A 9647. Lot 44H0190), 25 mM KF (Fisher), 1 mM EDTA (Gibco ULTRAPURE), 25 μM GTP-γ-S, enzyme sufficient to give 3 to 6 nmoles incorporation during the 60 min incubation at 22° C., and test compound added from wells in 3-fold serial dilutions in 100% DMSO (1 μL/well). The reaction was stopped by the addition of 100 μL of 20% trichloroacetic acid. Plates were chilled for a minimum of 10 min, and precipitated glucan collected by filtration on GF/C plates (Packard UNIFILTER®-96), washed with 5 cycles of water (about 1 mL/well each cycle) using a Packard FILTERMATE HARVESTER. 40 μL/well scintillation fluid (Packard ULTIMA GOLD TM-XR) was added and the sealed plates counted in a WALLAC BETA counter in top-counting mode at an efficiency of approximately 40%.
Stock solutions were stored at 10 mg/mL in DMSO at −20° C. For each new enzyme preparation, the initial titration performed started at 1 mg/mL, which was prepared by making a 10-fold dilution in DMSO (5 μL to 50 μL). 40 μL of this stock was placed in column 12 of a round-bottomed 96-well microtiter plate. 40 μL DMSO was added to columns 1 to 11 in the same row and ten 3-fold serial dilutions performed, by transferring 20 μL from column 12 to column 11 etc., with 4 mixings before each transfer. No test compound was transferred to from column 2 to column 1. Duplicate aliquots of 1 μL of all 12 dilutions were then transferred to the side walls of a 96-well Bioblock 1.1 mL plate (Fisher brand) to create two rows.
Graphs of the primary data were created in PRISM software (the average of two determinations) using PRISM's curve fitting program (sigmoidal dose response non-linear regression). The amount of compound required to inhibit glucan synthase activity by 50% in this assay (IC50−ng/mL) was calculated.
Routine analysis was performed with glucan synthase (GS) prepared from Candida albicans MY1055 by the following procedure: MY1055 was grown in 10 liters YPD medium (10 g yeast extract, 20 g tryptone, 20 g glucose per liter) with vigorous shaking at 30° C., to early stationary phase. Cells were harvested by centrifugation, the pellet was washed and frozen at −70° C. until breakage. Thawed pellets were shaken with an equal volume of breakage buffer (50 mM HEPES pH 7.4, 10% glycerol, 1 mM EDTA, 1 mM PMSF, 1 mM DTT) and 4 times their weight of 0.5 mm acid washed glass beads for 2 hours at 4° C. Extent of breakage was assessed visually at 40× magnification. After low speed centrifugation to remove cell debris, the supernatant was centrifuged at 100,000×g for 60 min. to separate membranes plus ribosomes from cytoplasmic components. Membranes were further washed two additional times with breakage buffer using the same centrifugation conditions and finally suspended in breakage buffer at 25 to 30 mg/mL protein (Biorad) for storage at −70° C. Extraction of GS activity from membranes was performed at a protein concentration of 5 mg/mL in extraction buffer (50 mM NaPO4 pH 7.5, 0.1 M KCl, 0.1M Na citrate, 20% glycerol, 5 μM GTP-γ-S, 1 mM DTT, 1 mM PMSF, 3 μg/mL pepstatin) plus 0.25% W1 by gentle mixing at 4° C. for 60 min, followed by centrifugation at 100,000×g for 60 min. After centrifugation, clear supernatant was removed from a pellet consisting of a hard layer usually with small amounts of gelatinous unextracted membranes above it.
Trapping was initiated immediately by 5-fold dilution in trapping buffer (50 mM HEPES pH 7.5, 10 mM KF, 1 mM EDTA, 2 mg/mL BSA) plus 2.5 mM UDPG and 10 μM GTP-γ-S. After incubation at 25° C. for 60 to 90 minutes, glucan was harvested by low speed centrifugation (3,000×g, 10 min). […]

glucan synthase (GS) prepared from Candida albicans MY1055, sequence (O13428 1-1897): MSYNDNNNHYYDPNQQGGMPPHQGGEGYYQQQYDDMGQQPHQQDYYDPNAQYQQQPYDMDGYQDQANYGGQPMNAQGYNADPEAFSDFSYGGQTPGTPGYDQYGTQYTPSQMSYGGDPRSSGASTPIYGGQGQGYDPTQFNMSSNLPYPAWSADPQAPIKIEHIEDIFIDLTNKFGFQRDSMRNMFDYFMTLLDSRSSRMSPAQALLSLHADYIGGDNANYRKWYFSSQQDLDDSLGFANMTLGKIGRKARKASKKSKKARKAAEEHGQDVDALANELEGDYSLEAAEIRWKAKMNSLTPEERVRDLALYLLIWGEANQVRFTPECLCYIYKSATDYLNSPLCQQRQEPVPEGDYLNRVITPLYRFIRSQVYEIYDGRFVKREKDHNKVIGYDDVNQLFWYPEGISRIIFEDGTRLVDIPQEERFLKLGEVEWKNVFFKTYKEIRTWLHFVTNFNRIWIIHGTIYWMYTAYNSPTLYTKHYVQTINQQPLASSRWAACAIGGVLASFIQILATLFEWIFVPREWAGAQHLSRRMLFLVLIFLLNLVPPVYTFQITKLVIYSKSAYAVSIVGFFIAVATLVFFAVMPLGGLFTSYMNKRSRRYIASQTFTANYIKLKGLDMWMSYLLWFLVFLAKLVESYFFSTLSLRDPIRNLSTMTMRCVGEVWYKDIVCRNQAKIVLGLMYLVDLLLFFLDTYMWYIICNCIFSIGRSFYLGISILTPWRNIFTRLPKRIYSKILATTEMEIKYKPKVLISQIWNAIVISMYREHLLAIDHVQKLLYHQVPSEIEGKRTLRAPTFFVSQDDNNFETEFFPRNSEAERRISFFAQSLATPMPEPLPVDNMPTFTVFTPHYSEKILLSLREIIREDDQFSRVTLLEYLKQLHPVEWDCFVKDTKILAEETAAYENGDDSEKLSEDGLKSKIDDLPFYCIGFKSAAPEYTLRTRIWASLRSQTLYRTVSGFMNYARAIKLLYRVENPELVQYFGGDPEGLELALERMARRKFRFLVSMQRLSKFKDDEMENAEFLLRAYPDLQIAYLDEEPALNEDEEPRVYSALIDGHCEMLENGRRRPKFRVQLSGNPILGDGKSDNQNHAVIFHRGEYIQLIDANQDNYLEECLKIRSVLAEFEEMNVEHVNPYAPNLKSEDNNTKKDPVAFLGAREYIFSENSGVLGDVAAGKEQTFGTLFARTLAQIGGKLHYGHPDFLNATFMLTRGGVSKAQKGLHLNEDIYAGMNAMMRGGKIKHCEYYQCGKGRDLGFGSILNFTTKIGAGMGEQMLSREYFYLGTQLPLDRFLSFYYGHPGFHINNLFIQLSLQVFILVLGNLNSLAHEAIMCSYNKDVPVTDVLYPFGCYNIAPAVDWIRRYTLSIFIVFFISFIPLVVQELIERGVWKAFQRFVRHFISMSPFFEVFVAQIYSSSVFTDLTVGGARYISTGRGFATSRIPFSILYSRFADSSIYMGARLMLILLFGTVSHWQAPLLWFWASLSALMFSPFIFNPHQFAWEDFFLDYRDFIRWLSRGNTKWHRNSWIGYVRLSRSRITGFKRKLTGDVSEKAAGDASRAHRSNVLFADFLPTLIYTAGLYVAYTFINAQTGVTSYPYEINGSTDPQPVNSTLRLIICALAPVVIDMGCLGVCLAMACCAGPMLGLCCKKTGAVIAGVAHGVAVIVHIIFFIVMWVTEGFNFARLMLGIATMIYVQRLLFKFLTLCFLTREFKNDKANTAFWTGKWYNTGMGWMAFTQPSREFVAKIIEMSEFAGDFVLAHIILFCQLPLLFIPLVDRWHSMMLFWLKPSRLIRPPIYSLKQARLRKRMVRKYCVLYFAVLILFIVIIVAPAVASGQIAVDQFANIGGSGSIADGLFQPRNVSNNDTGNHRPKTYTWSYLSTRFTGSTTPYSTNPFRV

Compound | Candida Albicans GS IC50 [ng/mL]
CN[C@@](C)(CO[C@H]1[C@H](n2ncnc2I)C[C@@]23COC[C@]1(C)[C@@H]2CC[C@H]1C3=CC[C@@]2(C)[C@H](C(=O)O)[C@@](C)([C@H](C)C(C)C)CC[C@]12C)C(C)C (racemic) [Example 22, (1S,4aR,6aS,7R,8R,10aR,10bR,12aR,14R,1SR)-15-[[(2R)-2,3-dimethyl-2-(methylamino)butyl]oxy]-8-[(1R)-1,2-dimethylpropyl]-14-(5-iodo-1H-1,2,4-triazol-1-yl)-1,6,6a,7,8,9,10,10a,10b,11,12,12a-dodecahydro-1,6a,8,10a-tetramethyl-4H-1,4a-propano-2H-phenanthro[1,2-c]pyran-7-carboxylic acid] | 5

Same assay, conditions: GS from C. albicans MY1055; 60 min incubation at 22° C.; read-out: Candida Albicans GS IC50 (converted)

Compound | IC50 [nM]
COC(=O)c1ncn([C@@H]2C[C@@]34COC[C@](C)([C@@H]3CC[C@H]3C4=CC[C@@]4(C)[C@H](C(=O)O)[C@@](C)([C@H](C)C(C)C)CC[C@]34C)[C@H]2OC[C@](C)(N)C(C)C)n1 (single isomer, unassigned) [Example 8A] | 5.74
CC(C)[C@@H](C)[C@@]1(C)CC[C@]2(C)[C@H]3CC[C@@H]4[C@@]5(COC[C@@]4(C)[C@@H](OC[C@](C)(N)C(C)C)[C@H](n4nc(Br)nc4[N+](=O)[O-])C5)C3=CC[C@@]2(C)[C@@H]1C(=O)O (single isomer, unassigned) [Example 29B] | 81.3
CC(C)[C@@H](C)[C@@]1(C)CC[C@]2(C)[C@H]3CC[C@@H]4[C@@]5(COC[C@@]4(C)[C@@H](OC[C@](C)(N)C(C)(C)C)[C@H](n4cnnc4)C5)C3=CC[C@@]2(C)[C@@H]1C(=O)O [Example 1B, (1S,4aR,6aS,7R,8R,10aR,10bR,12aR,14R,15R)-15-[[(2R)-2-amino-2,3,3-trimethylbutyl]oxy]-8-[(1R)-1,2-dimethylpropyl]-14-(4H-1,2,4-triazol-4-yl)-1,6,6a,7,8,9,10,10a,10b,11,12,12a-dodecahydro-1,6a,8,10a-tetramethyl-4H-1,4a-propano-2H-phenanthro[1,2-c]pyran-7-carboxylic acid] | 42.9
CN[C@](C)(CO[C@H]1[C@H](n2cncn2)C[C@@]23COC[C@]1(C)[C@@H]2CC[C@H]1C3=CC[C@@]2(C)[C@H](C(=O)O)[C@@](C)([C@H](C)C(C)C)CC[C@]12C)C(C)C [Example 3, (1S,4aR,6aS,7R,8R,10aR,10bR,12aR,14R,15R)-15-[[(2S)-2,3-dimethyl-2-(methylamino)butyl]oxy]-8-[(1R)-1,2-dimethylpropyl]-14-(1H-1,2,4-triazol-1-yl)-1,6,6a,7,8,9,10,10a,10b,11,12,12a-dodecahydro-1,6a,8,10a-tetramethyl-4H-1,4a-propano-2H-phenanthro[1,2-c]pyran-7-carboxylic acid] | 26
CN[C@@](C)(CO[C@H]1[C@H](n2cnc(N)n2)C[C@@]23COC[C@]1(C)[C@@H]2CC[C@H]1C3=CC[C@@]2(C)[C@H](C(=O)O)[C@@](C)([C@H](C)C(C)C)CC[C@]12C)C(C)C [Example 5, (1S,4aR,6aS,7R,8R,10aR,10bR,12aR,14R,15R)-14-(3-amino-1H-1,2,4-triazol-1-yl)-15-[[(2R)-2,3-dimethyl-2-(methylamino)butyl]oxy]-8-[(1R)-1,2-dimethylpropyl]-1,6,6a,7,8,9,10,10a,10b,11,12,12a-dodecahydro-1,6a,8,10a-tetramethyl-4H-1,4a-propano-2H-phenanthro[1,2-c]pyran-7-carboxylic acid] | 12
CC(C)[C@@H](C)[C@@]1(C)CC[C@]2(C)[C@H]3CC[C@@H]4[C@@]5(COC[C@@]4(C)[C@@H](OC[C@](C)(N)C(C)C)[C@H](n4cnc(Br)n4)C5)C3=CC[C@@]2(C)[C@@H]1C(=O)O [Example 6C, (1S,4aR,6aS,7R,8R,10aR,10bR,12aR,14R,15R)-15-[[(2R)-2-amino-2,3-dimethylbutyl]oxy]-14-(3-bromo-1H-1,2,4-triazol-1-yl)-8-[(1R)-1,2-dimethylpropyl]-1,6,6a,7,8,9,10,10a,10b,11,12,12a-dodecahydro-1,6a,8,10a-tetramethyl-4H-1,4a-propano-2H-phenanthro[1,2-c]pyran-7-carboxylic acid] | 47.4
CC(C)[C@@H](C)[C@@]1(C)CC[C@]2(C)[C@H]3CC[C@@H]4[C@@]5(COC[C@@]4(C)[C@@H](OCC(C)(C(C)C)N(C)C)[C@H](n4ncnc4Cl)C5)C3=CC(=O)[C@@]2(C)[C@@H]1C(=O)O (stereo partly drawn) [Example 9B, (1S,4aR,6aS,7R,8R,10aR,10bR,12aR,14R,15R)-14-(5-chloro-1H-1,2,4-triazol-1-yl)-15-[2-(dimethylamino)-2,3-dimethylbutoxy]-8-[(1R)-1,2-dimethylpropyl]-1,6,6a,7,8,9,10,10a,10b,11,12,12a-dodecahydro-1,6a,8,10a-tetramethyl-6-oxo-4H-1,4a-propano-2H-phenanthro[1,2-c]pyran-7-carboxylic acid] | 36.3
CC(C)[C@@H](C)[C@@]1(C)CC[C@]2(C)[C@H]3CC[C@@H]4[C@@]5(COC[C@@]4(C)[C@@H](OCC(C)(C(C)C)N(C)C)[C@H](n4cnc(Cl)n4)C5)C3=CC(=O)[C@@]2(C)[C@@H]1C(=O)O (stereo partly drawn) [Example 9C, (1S,4aR,6aS,7R,8R,10aR,10bR,12aR,14R,15R)-14-(3-chloro-1H-1,2,4-triazol-1-yl)-15-[2-(dimethylamino)-2,3-dimethylbutoxy]-8-[(1R)-1,2-dimethylpropyl]-1,6,6a,7,8,9,10,10a,10b,11,12,12a-dodecahydro-1,6a,8,10a-tetramethyl-6-oxo-4H-1,4a-propano-2H-phenanthro[1,2-c]pyran-7-carboxylic acid] | 74.1

Second part, the compound after the results:

IC50 [nM] | Compound
4.32 | CC(C)[C@@H](C)[C@@]1(C)CC[C@]2(C)[C@H]3CC[C@@H]4[C@@]5(COC[C@@]4(C)[C@@H](OC[C@](C)(N)C(C)C)[C@H](n4nc(N)nc4C4CC4)C5)C3=CC[C@@]2(C)[C@@H]1C(=O)O (single isomer, unassigned) [Example 32A]
60.8 | CC(C)NC(=O)c1ncn([C@@H]2C[C@@]34COC[C@](C)([C@@H]3CC[C@H]3C4=CC[C@@]4(C)[C@H](C(=O)O)[C@@](C)([C@H](C)C(C)C)CC[C@]34C)[C@H]2OC[C@](C)(N)C(C)C)n1 (single isomer, unassigned) [Example 37B]
17.2 | CC(C)[C@@H](C)[C@@]1(C)CC[C@]2(C)[C@H]3CC[C@@H]4[C@@]5(COC[C@@]4(C)[C@@H](OC[C@](C)(N)C(C)C)[C@H](n4nccn4)C5)C3=CC[C@@]2(C)[C@@H]1C(=O)O (single isomer, unassigned) [Example 288B]
126 | COC(=O)c1cnnn1[C@@H]1C[C@@]23COC[C@](C)([C@@H]2CC[C@H]2C3=CC[C@@]3(C)[C@H](C(=O)O)[C@@](C)([C@H](C)C(C)C)CC[C@]23C)[C@H]1OC[C@](C)(N)C(C)C (single isomer, unassigned) [Example 289B]
4.39 | CC(C)[C@@H](C)[C@@]1(C)CC[C@]2(C)[C@H]3CC[C@@H]4[C@@]5(COC[C@@]4(C)[C@@H](OC[C@](C)(N)C(C)C)[C@H](n4nccc4[N+](=O)[O-])C5)C3=CC[C@@]2(C)[C@@H]1C(=O)O (single isomer, unassigned) [Example 293B]
30.7 | CC(C)[C@@H](C)[C@@]1(C)CC[C@]2(C)[C@H]3CC[C@@H]4[C@@]5(COC[C@@]4(C)[C@@H](OCC4COCCN4)[C@H](n4ncnc4-c4ccncc4)C5)C3=CC[C@@]2(C)[C@@H]1C(=O)O (single isomer, unassigned) [Example 303A]
